Experiments:
Type in all cases: in vivo
[1] = system: Argentine ant (Linepithema humile); assay: Test method 7: treated filter paper with sugar water, Argentine ant workers; conditions: 12.5 ppm, 0.7 ml on filter paper, after 6 days, 25° C.
Protocol: (§1) Next, an efficacy of the Type 1 crystal of Compound (1) on controlling harmful arthropods is shown by Test examples. The following tests were conducted at 25° C.
(§2) Test compound is made to a formulation according to a similar method to that described in the Formulation example 1, and thereto is added 1.8 g of sucrose, followed by adding 3% sugar water to prepare a dilution containing a prescribed concentration of the test compound.
(§3) A filter paper having a diameter of 5.5 cm is spread on the bottom of the cup, and then 0.7 ml of the dilutons are added dropwise to the filter paper, and ten (10) Argentine ant (Linepithema humile) workers are released into the cup, and the cup is covered with the lid. After 6 days, the number of the dead and distressed individuals of Argentine ant workers are counted, and the ratio of distressed and dead insects (%) is calculated by the following equation.
(§4) Here the dead individual is one whose behavior has completely stopped, and a distressed individual is one that cannot stand up when placed on its back and also cannot walk.

[2] = system: German cockroach (Blattella germanica); assay: Test method 8: treated filter paper with sugar water, German cockroach male adults; conditions: 0.8 ppm, 0.7 ml on filter paper, after 5 days, 25° C.
Protocol: as §1, §2
as §3, with “dilutions” for “dilutons”, “five (5) German cockroach (Blattella germanica) male adults” for “ten (10) Argentine ant (Linepithema humile) workers”, “5” for “6”, “German cockroach male adults” for “Argentine ant workers”
as §4

[3] = system: cotton aphids (Aphis gossypii); assay: Test method 1: foliar spray on cucumber seedling infested with cotton aphids; conditions: 500 ppm, spray 10 mL/seedling on cucumber, cotton aphids all stages, after 5 days, 25° C.
Protocol: Next, an efficacy of the Type 1 crystal of Compound (1) on controlling harmful arthropods is shown by Test examples. The following tests were conducted at 25° C. Test compound is made to a formulation according to a similar method to that described in the Formulation example 1, and thereto is added water containing 0.03 v/v % of Shindain (registered trademark) to prepare a dilution containing a prescribed concentration of the test compound. Cucumber (Cucumis sativus) seedling (on the developmental stage of the second true leaf) is planted in a cup, and approximately 30 cotton aphids (Aphis gossypii) (all stages of life) are released onto the seedling. After one day, the dilutions are sprayed onto the seedling at a ratio of 10 mL/seedling. After 5 days, the number of the surviving insects is examined, and the controlling value is calculated by the following equation. […]

[4] = system: common cutworms (Spodoptera litura); assay: Test method 2: sprayed cabbage leaf, common cutworm larvae; conditions: 120 h, spray 20 mL/seedling on cabbage, second instar larvae, after 5 days, 25° C., read-out: mortality of insects
Protocol: as §1
(§5) Test compound is made to a formulation according to a similar method to that described in the Formulation example 1, and thereto is added water containing 0.03 v/v % of Shindain (registered trademark) to prepare a dilution containing a prescribed concentration of the test compound.
(§6) Cabbage (Brassicae oleracea) seedling (on the developmental stage of the second to third true leaf) is planted in a cup, and the dilutions are sprayed onto the seedling at a ratio of 20 mL/seedling. Thereafter, the stem and leaf thereof are cut out and then are placed into a cup that is lined with filter paper. Five (5) commom cutworms (Spodoptera litura) at the second instar larval stage are released into the cup. After 5 days, the number of the surviving insects is counted, and the mortality of insects is calculated by the following equation.
Mortality (%)=(1−Number of surviving insects/5)×100

[5] = system: diamondback moths (Plutella xylostella); assay: Test method 3: sprayed cabbage leaf, diamondback moth larvae; conditions: 120 h, spray 20 mL/seedling on cabbage, second instar larvae, after 5 days, 25° C., read-out: mortality of insects
Protocol: as §1, §5
as §6, with “with a” for “with”, “diamondback moths (Plutella xylostella)” for “commom cutworms (Spodoptera litura)”

[6] = system: common house mosquitos (Culex pipiens pallens); assay: Test method 4: mosquito larvae released into dilution; conditions: 24 h, last instar larvae in dilution, after 1 day, 25° C., read-out: mortality of insects
Protocol: as §1
Test compound is made to a formulation according to a similar method to that described in the Formulation example 1, and thereto is added water to prepare a dilution containing a prescribed concentration of the test compound.
Into the dilution, 30 common house mosquitos (Culex pipiens pallens) at the last instar larval stage are released, and after 1 day, the state of the common house mosquito larvae is examined, and the mortality of insects is calculated by the following equation.
Mortality (%)=(Number of dead insects/Number of tested insects)×100

[7] = system: brown planthoppers (Nilaparvata lugens); assay: Test method 5: sprayed rice seedling, brown planthopper larvae; conditions: 144 h, spray 10 mL/seedling on rice, third instar larvae, after 6 days, 25° C., read-out: mortality of insects
Protocol: as §1, §5
Rice (Oryza sativa) seedling (on the developmental stage of the second leaf) is planted in a cup, and the dilutions are sprayed onto the seedling at a ratio of 10 mL/seedling. Thereafter, twenty (20) brown planthoppers (Nilaparvata lugens) at the third instar larval stage are released into the cup. After 6 days, the number of the surviving insects is counted, and the mortality of insects is calculated by the following equation.
Mortality (%)=(1−Number of surviving insects/20)×100

[8] = system: cotton aphids (Aphis gossypii); assay: Test method 6: sprayed cucumber seedling with artificial rainfall, cotton aphids; conditions: 1 ppm, spray 10 mL/seedling on cucumber, artificial rainfall 10 mm/hr for 1 hour, female adults released after one day, after 5 days, 25° C.
Protocol: Next, an efficacy of the Type 1 crystal of Compound (1) on controlling harmful arthropods is shown by Test examples. The following tests were conducted at 25° C. Test compound is made to a formulation according to a similar method to that described in the Formulation example 1, and thereto is added water containing 0.02 v/v % of Shindain (registered trademark) to prepare a dilution containing a prescribed concentration of the test compound. Only the second true leaves of Cucumber (Cucumis sativus) seedling (on the developmental stage of the third true leaf) are retained, and the other leaves are cut off, and the dilutions are sprayed onto the seedling at a ratio of 10 mL/seedling. After the dilution, which is treated, is dried, rain is given to the cucumber seedling with an artificial rainfall device at 10 mm/hr for 1 hour. After one day, 10 cotton aphids (Aphis gossypii) female adults are released onto the seedling. After 5 days, the number of the surviving insects is examined and the controlling value is calculated by the following equation. […]

SMILES	ratio of distressed and dead insects [1] [%]	ratio of distressed and dead insects [2] [%]	controlling value [3] [%]	mortality at 500 ppm [4] [%]	mortality at 500 ppm [5] [%]	mortality at 3.5 ppm [6] [%]	mortality at 500 ppm [7] [%]	controlling value [8] [%]
CCS(=O)(=O)c1cc(C2CC2)cnc1-c1nc2cc(S(=O)(=O)C(F)(F)F)ccc2o1 [amorphous of Compound (1), 2-(5-cyclopropyl-3-(ethylsulfonyl)pyridin-2-yl)-5-((trifluoromethyl)sulfonyl)benzo[d]oxazole]	35	30						
CCS(=O)(=O)c1cc(C2CC2)cnc1-c1nc2cc(S(=O)(=O)C(F)(F)F)ccc2o1 [Type 1 crystal of Compound (1), 2-(5-cyclopropyl-3-(ethylsulfonyl)pyridin-2-yl)-5-((trifluoromethyl)sulfonyl)benzo[d]oxazole]	100	100	≥ 90	≥ 80	≥ 80	≥ 90	≥ 90	40.5

Source: patent US20260144258A1, “CRYSTAL OF 2-(5-CYCLOPROPYL-3-(ETHYLSULFONYL)PYRIDIN-2-YL)-5-((TRIFLUOROMETHYL)SULFONYL)BENZO[D]OXAZOLE” (SUMITOMO CHEMICAL COMPANY, LIMITED, priority 2022, published 2026)
